The results in this text go back to patent publication US20110201869A1, “METHOD AND APPARATUS FOR ENHANCED TRANSDERMAL DIFFUSION” (OBJ LIMITED, priority 2008, published 2011).

Data set [1] can be described thus: in vitro Franz Cell diffusion study through excised epidermis. It is filed as in vitro ADME, piglet. The method, then:
FIG. 4 is a plot of the substance Tetracaine through excised piglet ear epidermis in an in vitro Franz Cell diffusion study. Epidermal membranes were obtained by heat separation (60 sec at 60° C., Kligman and Christophers 1963). Skin integrity was determined by conductance measurement before the experiment. Skin sections from each ear were matched over the groups per experiment. Epidermal membranes were placed between the donor and receptor compartments of Franz-type diffusion cells with the stratum corneum facing the donor chamber. The epidermal membranes were equilibrated with the receptor solution (USP PBS, pH 7.4) for 30 min. The receptor compartment of the cell was immersed in a water bath at 37±0.5° C., and stirred every 5 min throughout the experiment. After equilibration, the donor solution consisting of 1 mL of 2 (FIG. 4a) or 4% Tetracaine HCL (FIG. 4B; Sigma) in PBS was added, and the present invention was suspended 3 mm above the surface of the donor fluid (i.e. 8 mm above the epidermal surface). The passive diffusion cells received the same donor drug concentration and were covered with parafilm only, i.e. no material of the present invention was applied. The administration period was 0-1 hr. Samples of the receptor solution were removed and replaced with fresh buffer over a 60 minute period. All samples were analysed for Tetracaine hydrochloride content by spectrophotometric detection (absorbance at 229 nm). The cumulative amount of Tetracaine hydrochloride in the receptor compartment versus time was plotted for both experiments. After the diffusion experiment the skin, still fixed in the diffusion chamber, was stained with standard HE dye. The diffusion area was investigated under a microscope for the occurrence of damage to the skin. Data derived from epidermis with low skin integrity was excluded from analysis and graphical depiction.
FIG. 5 is a plot of the substance Sumatriptan through excised piglet ear epidermis in an in vitro Franz Cell diffusion study. […] All samples were analysed for Sumatriptan content by spectrophotometric detection (absorbance at 285 nm). […]

A short description of data set [2]: Methyl Nicotinate Laser-Doppler vasodilation model (transdermal delivery in vivo). The arrangement: species or system human. From the text:
FIG. 7 depicts the enhancing effects of the present invention on the delivery of Methyl Nicotinate through human skin in vivo. The Methyl Nicotinate Laser-Doppler vasodilation model was used (see Hollaway et al, J. Invest Dermatol 69:306-309, 1977; Wester et al., J. Invest Dermatol 83:515-517, 1984). […] In short, successful transdermal delivery of the rubifacient Methyl Nicotinate through the skin results in pronounced vasodilation, increased perfusion and erythema. […] The Methyl Nicotinate induced vasodilation can be measured using a non-invasive Laser Doppler Flow or Perfusion meter with data being provided as a numeric value equitable to local in vivo blood perfusion. The present experiment involved the saturation of 4 cm^2 tissue paper units with Methyl Nicotinate (5 mmolar in PBS). The Methyl Nicotinate tissues were applied to the skin of the volar forearm. The present invention (4 cm^2) and the passive surrogate units were placed over the Methyl Nicotinate soaked paper units. For 5 minutes one active and one passive unit were applied adjacently onto the skin of the forearm. Subsequently, all materials were removed from the skin and the skin was patted dry. Laser Doppler perfusion probes (Moor Instruments Laser Doppler Perfusion Meter) were placed over both areas and blood perfusion rates were monitored for a 30 minute period. […]

Take `CNS(=O)(=O)Cc1ccc2[nH]cc(CCN(C)C)c2c1` [Sumatriptan]: in data set [1] (Sumatriptan succinate 2 mg/ml donor, 0-30 min, FIG. 5), the “diffusion through excised epidermis under the influence of the present invention compared to passive diffusion” value is “enhanced diffusion”.
On to `COC(=O)c1cccnc1` [Methyl Nicotinate], for which, in data set [2] (5 mmolar in PBS, 5 minutes application on volar forearm, perfusion monitored 30 minutes, FIG. 7), the “delivery through human skin in vivo with the present invention compared with passive diffusion (blood perfusion by Laser Doppler)” value was “effective at enhanced delivery”. Also, the “diffusion with 480 gauss / 300 poles per meter versus 120 gauss / 500 poles per meter device” value in data set [2] (2 milli-molar, human forearm skin in vivo, FIG. 8) is “similar”.
Regarding `CCCCNc1ccc(C(=O)OCCN(C)C)cc1` [Tetracaine], the “diffusion through excised epidermis under the influence of the present invention compared to passive diffusion” value in data set [1] (2% Tetracaine HCL in PBS donor, 0-1 hr, magnetic device suspended 8 mm above epidermal surface, FIG. 4A) is reported as “enhanced diffusion”; in data set [1] (4% Tetracaine HCL in PBS donor, 0-1 hr, magnetic device suspended 8 mm above epidermal surface, FIG. 4B), “enhanced diffusion”.
